This passage reports Activity and Km results from ChEMBL document CHEMBL2074101, “Cloning and characterization of a rat H+/peptide cotransporter mediating absorption of beta-lactam antibiotics in the intestine and kidney” (J Pharmacol Exp Ther, 1995).

Common to all, as to format: functional, cell-based
Details in all cases: Oocyte

Data set [1] has as its target T1, Solute carrier family 15 member 1 (Rattus norvegicus) (UniProt P51574).
T1 sequence (whole entry): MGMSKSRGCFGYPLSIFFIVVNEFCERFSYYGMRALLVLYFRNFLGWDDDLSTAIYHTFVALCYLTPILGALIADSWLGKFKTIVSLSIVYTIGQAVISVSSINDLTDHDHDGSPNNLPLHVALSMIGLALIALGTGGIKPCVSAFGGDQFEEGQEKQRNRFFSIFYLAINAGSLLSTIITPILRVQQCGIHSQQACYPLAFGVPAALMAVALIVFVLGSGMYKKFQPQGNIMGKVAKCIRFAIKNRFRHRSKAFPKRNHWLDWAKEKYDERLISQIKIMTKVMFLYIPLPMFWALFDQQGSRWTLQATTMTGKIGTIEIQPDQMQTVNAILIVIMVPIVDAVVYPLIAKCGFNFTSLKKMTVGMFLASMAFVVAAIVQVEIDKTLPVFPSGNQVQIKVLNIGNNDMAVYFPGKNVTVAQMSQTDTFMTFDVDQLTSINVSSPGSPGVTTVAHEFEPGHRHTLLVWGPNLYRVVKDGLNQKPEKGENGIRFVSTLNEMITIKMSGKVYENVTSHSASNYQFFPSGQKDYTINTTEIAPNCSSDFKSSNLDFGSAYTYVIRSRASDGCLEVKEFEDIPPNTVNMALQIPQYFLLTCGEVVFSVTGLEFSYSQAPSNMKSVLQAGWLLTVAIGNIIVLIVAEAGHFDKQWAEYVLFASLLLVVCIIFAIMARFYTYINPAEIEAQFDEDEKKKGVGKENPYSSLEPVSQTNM
As to the kind of experiment: TP_TRANSPORTER: inhibition of Ceftibuten uptake (Ceftibuten: 1000 uM, Bestatin: 10000 uM) in Xenopus laevis oocytes.

Data set [2] addresses T1, Solute carrier family 15 member 1 (Rattus norvegicus). As to the kind of experiment: TP_TRANSPORTER: inhibition of Cephradine uptake (Cephradine: 3000 uM, Bestatin: 10000 uM) in Xenopus laevis oocytes.
For data set [3] the target is unchanged. As to the kind of experiment: TP_TRANSPORTER: inhibition of Cephradine uptake (Cephradine: 3000 uM, Gly-Leu: 10000 uM) in Xenopus laevis oocytes.
Data set [4] shares this target. Nature of the data set: TP_TRANSPORTER: inhibition of Ceftibuten uptake (Ceftibuten: 1000 uM, Gly-Leu: 10000 uM) in Xenopus laevis oocytes.
For data set [5] the target is unchanged. Nature of the data set: TP_TRANSPORTER: inhibition of Cephradine uptake (Cephradine: 3000 uM, Ceftibuten: 10000 uM) in Xenopus laevis oocytes.
Data set [6] shares this target. Nature of the data set: TP_TRANSPORTER: inhibition of Ceftibuten uptake (Ceftibuten: 1000 uM, Cephradine: 10000 uM) in Xenopus laevis oocytes.
Data set [7] shares this target. As to the kind of experiment: TP_TRANSPORTER: inhibition of Ceftibuten uptake (Ceftibuten: 1000 uM, Carnosine: 10000 uM) in Xenopus laevis oocytes.
The target is the same in data set [8]. Nature of the data set: TP_TRANSPORTER: inhibition of Cephradine uptake (Cephradine: 3000 uM, Carnosine: 10000 uM) in Xenopus laevis oocytes.
Substrate in data set [9]: Nc1nc(/C(=C/CC(=O)O)C(=O)N[C@@H]2C(=O)N3C(C(=O)O)=CCS[C@H]23)cs1
Nature of the data set: (§1) TP_TRANSPORTER: uptake in Xenopus laevis oocytes.

Substrate in data set [10]: CC1=C(C(=O)O)N2C(=O)[C@@H](NC(=O)[C@H](N)C3=CCC=CC3)[C@H]2SC1
The data set is described as §1.

For the molecule `CC(C)C[C@H](NC(=O)[C@@H](O)[C@H](N)Cc1ccccc1)C(=O)O`, the Activity entry in data set [1] and in data set [2] was “inhibitor [+]” throughout. `CC(C)C[C@H](NC(=O)CN)C(=O)O`: the Activity entry in [3] and in data set [4] was “inhibitor [+]” in each case. On to `Nc1nc(/C(=C/CC(=O)O)C(=O)N[C@@H]2C(=O)N3C(C(=O)O)=CCS[C@H]23)cs1`, for which the Activity entry in data set [5] is “inhibitor [+]”. With `CC1=C(C(=O)O)N2C(=O)[C@@H](NC(=O)[C@H](N)C3=CCC=CC3)[C@H]2SC1`, the Activity result in data set [6] was “is not an inhibitor [-]”. On to `NCCC(=O)N[C@@H](Cc1c[nH]cn1)C(=O)O`, for which the Activity entry in data set [7] and in [8] was “inhibitor [+]” throughout.

B1: Solute carrier family 15 member 1 (Rattus norvegicus), P51574 (protein)
chain: MGMSKSRGCFGYPLSIFFIVVNEFCERFSYYGMRALLVLYFRNFLGWDDDLSTAIYHTFVALCYLTPILGALIADSWLGKFKTIVSLSIVYTIGQAVISVSSINDLTDHDHDGSPNNLPLHVALSMIGLALIALGTGGIKPCVSAFGGDQFEEGQEKQRNRFFSIFYLAINAGSLLSTIITPILRVQQCGIHSQQACYPLAFGVPAALMAVALIVFVLGSGMYKKFQPQGNIMGKVAKCIRFAIKNRFRHRSKAFPKRNHWLDWAKEKYDERLISQIKIMTKVMFLYIPLPMFWALFDQQGSRWTLQATTMTGKIGTIEIQPDQMQTVNAILIVIMVPIVDAVVYPLIAKCGFNFTSLKKMTVGMFLASMAFVVAAIVQVEIDKTLPVFPSGNQVQIKVLNIGNNDMAVYFPGKNVTVAQMSQTDTFMTFDVDQLTSINVSSPGSPGVTTVAHEFEPGHRHTLLVWGPNLYRVVKDGLNQKPEKGENGIRFVSTLNEMITIKMSGKVYENVTSHSASNYQFFPSGQKDYTINTTEIAPNCSSDFKSSNLDFGSAYTYVIRSRASDGCLEVKEFEDIPPNTVNMALQIPQYFLLTCGEVVFSVTGLEFSYSQAPSNMKSVLQAGWLLTVAIGNIIVLIVAEAGHFDKQWAEYVLFASLLLVVCIIFAIMARFYTYINPAEIEAQFDEDEKKKGVGKENPYSSLEPVSQTNM
For orientation: Km means the concentration of substrate that gives half-maximal velocity. B1: the values for the Km in data set [9] and in [10] were 0.9 mM and 12.4 mM, respectively.
